Results published in PubChem BioAssay AID2060613 (Molecular Pharmacology Branch, DTP, NCI, 2025).

System: 233499-124-R-J3-PDC complex spheroid viability
Test: Anticancer human tumor 233499-124-R-J3-PDC patient-derived colon adenocarcinoma cell line growth inhibition [CLK]
Details: for IC50: curve of first compound; for viability, T/C: stronger effect = lower value
Description: A high-throughput screen of multi-cell type tumor spheroids was designed to identify active combinations of […] and targeted small molecules. Complex spheroids include a stromal component modeled by human endothelial cells (HUVEC) and fibroblasts modeled by human mesenchymal stem cells (MSCs). The concentration ranges selected for each drug and investigational agent were based upon clinically achievable concentrations if the clinical Cmax of the agent was known.
Compounds. The drugs and investigational agents: cirtuvivint (SM08502; NSC835563), CC-671 (NSC850746), vemurafenib (NSC761431), tapotoclax (NSC804041), sotorasib (NSC818433), adagrasib (NSC831453), MRTX-1133 (NSC836407), BAY2416964 (NSC825713), copanlisib (NSC816437), inavolisib (NSC800729), abemaciclib (NSC768073), osimertinib (NSC779217), entinostat (NSC756642), eltanexor (KPT-8602, NSC794443), venetoclax (NSC766270), ceralasertib (NSC777638), bortezomib (NSC756655), olaparib (NSC753686), talazoparib (NSC767125), alisertib (NSC759677), peposertib (NSC802822), gemcitabine (NSC613327), 5-fluorouracil (NSC19893), SN-38 (NSC673596), oxaliplatin (NSC266046), paclitaxel (NSC125973), and doxorubicin (NSC123127), were obtained from the National Cancer Institute (NCI) Developmental Therapeutics Program Chemical Repository. The FDA-approved anticancer drug set is available from the Developmental Therapeutics Program at https://dtp.cancer.gov/organization/dscb/obtaining/available plates.htm. […] The stock solutions were prepared in dimethyl sulfoxide (DMSO, Sigma-Aldrich, St. Louis, MO, cat. D2650), except for the platinum complexes which were prepared in saline (Quality Biological, Gaithersburg, MD, cat. 114-055-101), at 800-fold the tested concentration and stored at -70 degrees C prior to their use. All drugs and investigational agents were tested over a range starting from a high concentration at or near the clinical Cmax and decreasing in half-log increments. If the clinical Cmax for an agent had not been determined, the highest concentration tested was 10 microM.
Cell Culture. All cells were maintained in an incubator at 37 degrees C and 5% CO2 with 95% humidity. The PDC lines were cultured according to standard operating procedures established by the NCI PDMR. Briefly, all PDCs were thawed and cultured in Matrigel-coated flasks prepared with a working solution of 1X Ham's F-12 nutrient mix, without supplementation (Invitrogen, Waltham, MA, cat. 11765054), 100 U/mL penicillin-streptomycin (Invitrogen, cat. 15140122), and 2.5% Matrigel (Corning Inc., Corning, NY, cat. 354248) for the first three passages. The 947758-054-R-J2-PDC line was cultured in 6B/Colon 1A media, which includes advanced DMEM/F-12 (Thermo Fisher Scientific, cat. 12634028), 10 mM HEPES (Thermo Fisher Scientific, cat. 15630080), 1X GlutaMAX supplement (Thermo Fisher Scientific, cat. 35050061), 0.1 mg/mL primocin (InvivoGen, cat. ant-pm-2), 10% defined fetal bovine serum, heat inactivated (HyClone Laboratories Inc., cat. SH30070.03HI), 1.25 mM N-Acetyl-L-cysteine (Sigma-Aldrich, cat. A9165), 10 mM nicotinamide (Sigma-Aldrich, cat. N0636), 1X B-27 supplement (Thermo Fisher Scientific, cat. 17504044), 1X N-2 supplement (Thermo Fisher Scientific, cat. 17502048), and 10 microM Y-27632 dihydrochloride (Tocris Bioscience, cat. 1254). The 876862-298-R-J1-PDC was cultured in 6E media, which includes all 6B/Colon 1A media components plus 50% L-WRN conditioned media (ATCC, cat. CRL-3276), 50 ng/mL recombinant human EGF recombinant protein (hEGF; Thermo Fisher Scientific, cat. PHG0311), 10 ng/mL recombinant human fibroblast growth factor 10 (hGFG-10; PeproTech, cat. 100-26), 1 ng/mL recombinant human fibroblast growth factor 2 (hFGF-2; PeproTech, cat. 100-18B), and 1 µM prostaglandin E2 (PGE2; Tocris, cat. 2296). The 227483-062-R1-J1-PDC line was cultured in Panc media, containing all 6E components except hFGF-2, with the addition of 500 nM SB-431542 (Selleckchem, cat. S1067) and 10 nM gastrin (Tocris, cat. 3006). […]

[1] = second compound 0.0316 µM, first compound 0.0316 µM
[2] = second compound 0.0316 µM, first compound 0.1 µM
[3] = second compound 0.0316 µM, first compound 0.316 µM
[4] = second compound 0.0316 µM, first compound 1 µM
[5] = second compound 0.0316 µM, first compound 3.16 µM
[6] = second compound 0.0316 µM, first compound 10 µM
[7] = second compound 0.1 µM, first compound 0.0316 µM
[8] = second compound 0.1 µM, first compound 0.1 µM
[9] = second compound 0.1 µM, first compound 0.316 µM
[10] = second compound 0.1 µM, first compound 1 µM
[11] = second compound 0.1 µM, first compound 3.16 µM
[12] = second compound 0.1 µM, first compound 10 µM
[13] = second compound 0.316 µM, first compound 0.0316 µM
[14] = second compound 0.316 µM, first compound 0.1 µM
[15] = second compound 0.316 µM, first compound 0.316 µM
[16] = second compound 0.316 µM, first compound 1 µM
[17] = second compound 0.316 µM, first compound 3.16 µM
[18] = second compound 0.316 µM, first compound 10 µM
[19] = second compound 1 µM, first compound 0.0316 µM
[20] = second compound 1 µM, first compound 0.1 µM
[21] = second compound 1 µM, first compound 0.316 µM
[22] = second compound 1 µM, first compound 1 µM
[23] = second compound 1 µM, first compound 3.16 µM
[24] = second compound 1 µM, first compound 10 µM
[25] = second compound 3.16 µM, first compound 0.0316 µM
[26] = second compound 3.16 µM, first compound 0.1 µM
[27] = second compound 3.16 µM, first compound 0.316 µM
[28] = second compound 3.16 µM, first compound 1 µM
[29] = second compound 3.16 µM, first compound 3.16 µM
[30] = second compound 3.16 µM, first compound 10 µM
[31] = second compound 10 µM, first compound 0.0316 µM
[32] = second compound 10 µM, first compound 0.1 µM
[33] = second compound 10 µM, first compound 0.316 µM
[34] = second compound 10 µM, first compound 1 µM
[35] = second compound 10 µM, first compound 3.16 µM
[36] = second compound 10 µM, first compound 10 µM
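Note: spheroids exposed to the drug combinations for seven days.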
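Throughout, for viability, T/C: percent viability relative to DMSO vehicle control wells taken as 100%.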

Question: What does the source list for `C#Cc1c(F)ccc2cc(O)cc(-c3ncc4c(N5CC6CCC(C5)N6)nc(OCC56CCCN5CC(F)C6)nc4c3F)c12` (centres undefined) + CN1CCN(c2cc(C(=O)Nc3cc4cc(-c5cnn(C)c5)ccc4cn3)ccn2)CC1?
Answer: IC50 (second compound 0.0316 µM): > 10 µM; IC50 (second compound 0.1 µM): > 10 µM; IC50 (second compound 0.316 µM): > 10 µM; IC50 (second compound 1 µM): < 0.0316 µM; IC50 (second compound 3.16 µM): < 0.0316 µM; IC50 (second compound 10 µM): < 0.0316 µM; viability, T/C [1]: 80.6%; viability, T/C [2]: 96.9%; viability, T/C [3]: 92.9%; viability, T/C [4]: 91.9%; viability, T/C [5]: 98.1%; viability, T/C [6]: 76.8%; viability, T/C [7]: 87.4%; viability, T/C [8]: 99.8%; viability, T/C [9]: 109%; viability, T/C [10]: 94.1%; viability, T/C [11]: 85.7%; viability, T/C [12]: 71.4%; viability, T/C [13]: 90.7%; viability, T/C [14]: 92%; viability, T/C [15]: 102%; viability, T/C [16]: 98.5%; viability, T/C [17]: 81.9%; viability, T/C [18]: 66.4%; viability, T/C [19]: 3.8%; viability, T/C [20]: 4.61%; viability, T/C [21]: 1.85%; viability, T/C [22]: 9.57%; viability, T/C [23]: 2.33%; viability, T/C [24]: 1.27%; viability, T/C [25]: 0.59%; viability, T/C [26]: 0.56%; viability, T/C [27]: 0.97%; viability, T/C [28]: 0.63%; viability, T/C [29]: 1.43%; viability, T/C [30]: 0.5%; viability, T/C [31]: 0.45%; viability, T/C [32]: 0.45%; viability, T/C [33]: 0.43%; viability, T/C [34]: 0.39%; viability, T/C [35]: 0.39%; viability, T/C [36]: 0.8%

Question: Which results are given for `C=C(F)C(=O)N1CCN(c2nc(OCC3CCCN3C)nc3c2CCN(c2cccc4cccc(Cl)c24)C3)CC1CC#N` (centres undefined) + CN1CCN(c2cc(C(=O)Nc3cc4cc(-c5cnn(C)c5)ccc4cn3)ccn2)CC1?
Answer: IC50 (second compound 0.0316 µM): > 10 µM; IC50 (second compound 0.1 µM): > 10 µM; IC50 (second compound 0.316 µM): 9.65 µM; IC50 (second compound 1 µM): < 0.0316 µM; IC50 (second compound 3.16 µM): < 0.0316 µM; IC50 (second compound 10 µM): < 0.0316 µM; viability, T/C [1]: 95.2%; viability, T/C [2]: 104%; viability, T/C [3]: 91.5%; viability, T/C [4]: 100%; viability, T/C [5]: 94.1%; viability, T/C [6]: 84%; viability, T/C [7]: 99.6%; viability, T/C [8]: 90.9%; viability, T/C [9]: 103%; viability, T/C [10]: 96%; viability, T/C [11]: 95.2%; viability, T/C [12]: 85.1%; viability, T/C [13]: 93.6%; viability, T/C [14]: 90.3%; viability, T/C [15]: 82.9%; viability, T/C [16]: 98.6%; viability, T/C [17]: 87.8%; viability, T/C [18]: 48.6%; viability, T/C [19]: 1.94%; viability, T/C [20]: 3.93%; viability, T/C [21]: 4.58%; viability, T/C [22]: 0.73%; viability, T/C [23]: 5.08%; viability, T/C [24]: 0.83%; viability, T/C [25]: 0.56%; viability, T/C [26]: 0.88%; viability, T/C [27]: 0.69%; viability, T/C [28]: 0.56%; viability, T/C [29]: 0.42%; viability, T/C [30]: 0.12%; viability, T/C [31]: 0.42%; viability, T/C [32]: 0.74%; viability, T/C [33]: 0.44%; viability, T/C [34]: 0.95%; viability, T/C [35]: 0.32%; viability, T/C [36]: 0.72%
